Read-outs that look alike come from different tables or passages of the source.
How the values were obtained:
mouse RORγ = molecular target: T1, mouse RORγ (Mus musculus, UniProt P51450); experiment: Luciferase reporter gene assay of inhibitory effect against RORγ transcriptional activity (GAL4-mRORγ plasmid in CHO cells); type: cell-based
T1 construct: mouse, NM_011281.2 and from Ile251 to Lys516; expressed in transfected cells; host or cells: CHO cells (transient co-transfection with pG5-Luc reporter)
T1 sequence (P51450 251-516): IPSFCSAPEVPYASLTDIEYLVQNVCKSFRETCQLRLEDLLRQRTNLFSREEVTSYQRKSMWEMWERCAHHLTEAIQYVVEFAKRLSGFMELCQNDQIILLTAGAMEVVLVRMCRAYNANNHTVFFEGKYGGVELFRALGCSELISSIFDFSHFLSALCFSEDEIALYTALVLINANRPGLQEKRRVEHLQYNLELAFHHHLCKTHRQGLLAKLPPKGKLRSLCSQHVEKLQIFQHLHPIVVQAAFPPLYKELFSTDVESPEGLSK
How it was run: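 Readout is intracellular luciferase after 2-day compound exposure (8 concentrations, 0.1% DMSO) in CHO cells expressing GAL4 fused to mouse RORγ LBD residues Ile251–Lys516 plus pG5-Luc reporter. EC50 fitted from %-of-control; points showing resazurin-detected cytotoxicity dropped.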

human RORγ = molecular target: T2, human RORγ (Homo sapiens, UniProt P51449); experiment: Luciferase reporter gene assay of inhibitory effect against RORγ transcriptional activity (GAL4-hRORγ plasmid in CHO cells); type: cell-based
T2 construct: human, NM_005060.3 and from Ser253 to Lys518; expressed in transfected cells; host or cells: CHO cells (transient co-transfection with pG5-Luc reporter)
T2 sequence (P51449 253-518): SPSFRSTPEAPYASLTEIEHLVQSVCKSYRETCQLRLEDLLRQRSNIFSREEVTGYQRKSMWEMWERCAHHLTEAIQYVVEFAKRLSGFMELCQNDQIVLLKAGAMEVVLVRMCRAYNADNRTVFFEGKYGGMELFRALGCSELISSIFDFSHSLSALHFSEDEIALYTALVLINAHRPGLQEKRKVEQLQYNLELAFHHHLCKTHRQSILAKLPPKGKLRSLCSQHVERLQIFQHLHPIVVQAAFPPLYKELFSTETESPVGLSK

Row | SMILES | EC50 (mouse RORγ; read-out: LUC EC50 mRORg) | EC50 (human RORγ; read-out: LUC EC50 hRORg) | EC50 (mouse RORγ; read-out: LUC EC50 (μM) mRORg) | EC50 (human RORγ; read-out: LUC EC50 (μM) hRORg)
1 | Cc1ccc(NC(=O)[C@@H]2CC(F)(F)C[C@H]2c2nnc([C@H]3C[C@@H](CC(C)C)C3)n2C2CC2)c(C)c1 [Example F-572] | < 3 µM | < 3 µM | – | –
2 | CCn1c(CCC(=O)Nc2cccc3ccccc23)nnc1CCC(C)C [Example F-19] | – | – | < 3 µM | > 3 µM
3 | CCOC(=O)[C@H]1CC[C@H](CCc2nnc(CCC(=O)Nc3cccc(Cl)c3C)n2C2CC2)CC1 [Example F-240] | – | – | < 3 µM | > 3 µM
4 | CC(=O)N1CC[C@H](C(=O)Nc2ccc(C)cc2C)[C@H]1c1nnc(CCC2CCCCC2)n1C1CC1 [Example F-227] | – | – | < 3 µM | < 3 µM
5 | Cc1ccc(NC(=O)CCc2nnc(COC(C)(C)C)n2C2CC2)c(C)c1 [Example F-97] | – | – | > 3 µM | > 3 µM
6 | CCn1c(CCC(=O)Nc2cc(C)cc(C)c2)nnc1CCC1CCCCC1 [Example F-38] | – | – | > 3 µM | < 3 µM
7 | Cc1ccc(NC(=O)CCc2noc(C3(CO)CC(CC(C)(C)C)C3)c2C2CC2)c(Cl)c1 (mixture of isomers) [Example F-730] | < 3 µM | < 3 µM | – | –
8 | CC(=O)N1C[C@H](C(=O)Nc2ccc(C)cc2C)[C@@H](c2nnc([C@H]3C[C@@H](OC(C)(C)C)C3)n2C2CC2)C1 (racemic) [Example F-382] | – | – | < 3 µM | < 3 µM
9 | COc1cccc(NC(=O)[C@H]2CN(C(C)=O)C[C@@H]2c2nnc(CCCC(C)(C)C)n2C2CC2)c1C (racemic) [Example F-332] | – | – | < 3 µM | < 3 µM
10 | Cc1ccc(NC(=O)C[C@H](CCC(=O)O)c2noc(-c3cc(C(F)(F)C4(C)CC4)on3)c2C2CC2)c(Cl)c1 [Example E-51] | – | – | < 3 µM | < 3 µM
11 | Cc1ccc(NC(=O)C[C@H](CC#N)c2noc([C@H]3C[C@@H](CC(C)C)C3)c2C2CC2)c(C)c1 [Example F-638] | < 3 µM | < 3 µM | – | –
12 | Cc1ccc(NC(=O)CCc2noc(C(O)c3cc(C(C)(C)C)no3)c2C2CC2)c(Cl)c1 (racemic) [Example F-744] | < 3 µM | > 3 µM | – | –
13 | CC(C)CCc1nnc(CCC(=O)NCc2ccccc2Cl)n1C1CC1 [Example F-121] | – | – | > 3 µM | > 3 µM
14 | Cc1ccc(NC(=O)[C@H]2CN(C(=O)CN(C)C)C[C@@H]2c2nnc([C@H]3C[C@@H](CC(C)(C)C)C3)n2C2CC2)c(C)c1 [Example F-648] | < 3 µM | < 3 µM | – | –
15 | Cc1c(Cl)cccc1NC(=O)CC(CCCO)c1nnc(CCC(C)C)n1C1CC1 (racemic) [Example F-196] | – | – | < 3 µM | < 3 µM
16 | CCn1c(CCCC(C)(C)C)nnc1[C@H]1CN(C(C)=O)C[C@@H]1C(=O)Nc1ccc(C)cc1C (racemic) [Example F-351] | – | – | < 3 µM | < 3 µM
17 | Cc1ccc(NC(=O)C[C@H](CCC(=O)O)c2noc(-c3cc(CC(C)C)n(C)n3)c2C2CC2)c(Cl)c1 [Example E-26] | – | – | < 3 µM | < 3 µM
18 | CC(C)CCc1nnc(CCC(=O)Nc2ccccc2C(C)C)n1C1CC1 [Example F-75] | – | – | > 3 µM | > 3 µM
19 | Cc1ccc(NC(=O)CC(Cc2nnn[nH]2)c2nnc([C@H]3C[C@@H](CC(C)C)C3)n2C2CC2)c(C)c1 (mixture of isomers) [Example F-481] | – | – | > 3 µM | > 3 µM
20 | CC(C)C[C@H]1C[C@@H](c2nnc([C@@H](CCO)CC(=O)Nc3ccc(F)cc3Cl)n2C2CC2)C1 [Example F-513] | < 3 µM | < 3 µM | – | –
21 | CC(=O)N1C[C@H](C(=O)Nc2ccc(C)cc2C)[C@@H](c2nnc([C@H]3C[C@H](OC(C)C)C3)n2C2CC2)C1 (racemic) [Example F-329] | – | – | > 3 µM | > 3 µM
22 | Cc1ccc(NC(=O)C[C@H](CCO)c2nnc([C@H]3C[C@@H](CC(C)C)C3)n2C2CC2)c(C)c1 [Example F-361] | – | – | < 3 µM | < 3 µM
23 | COc1cc(C)ccc1CNC(=O)CC(CCO)c1nnc(CCCC(C)C)n1C1CC1 (racemic) [Example F-202] | – | – | < 3 µM | < 3 µM
24 | Cc1ccc(NC(=O)[C@@H]2CC(C)(O)C[C@H]2c2nnc([C@H]3C[C@@H](CC(C)C)C3)n2C2CC2)c(C)c1 (single isomer, unassigned) [Example F-564] | < 3 µM | < 3 µM | – | –
25 | CC(=O)N1C[C@H](C(=O)Nc2ccc(C)cc2C)[C@@H](c2nnc(C3CN(C(=O)OC(C)(C)C)C3)n2C2CC2)C1 (racemic) [Example F-416] | – | – | > 3 µM | > 3 µM
26 | Cc1ccc(NC(=O)CCc2nnc([C@H]3C[C@@H](CC4CCCC4)C3)n2C2CC2)c(C)c1 [Example F-424] | – | – | < 3 µM | < 3 µM

Row | SMILES | EC50 (mouse RORγ; read-out: LUC EC50 mRORg) | EC50 (human RORγ; read-out: LUC EC50 hRORg) | EC50 (mouse RORγ; read-out: LUC EC50 (μM) mRORg) | EC50 (human RORγ; read-out: LUC EC50 (μM) hRORg)
27 | CC(=O)N(C)[C@@H](CC(=O)Nc1ccc(C)cc1C)c1nnc(CCCC(C)(C)C)n1C1CC1 [Example F-354] | – | – | < 3 µM | < 3 µM
28 | Cc1ccc(NC(=O)C[C@H](CCC(=O)O)c2nnn(-c3ccc(CCC4CCCC4)cc3)c2C2CC2)c(Cl)c1 [Example F-701] | < 3 µM | < 3 µM | – | –
29 | CCCOc1ccc(-c2nnc(CCC(=O)Nc3ccc(C)cc3C)n2C2CC2)cc1 [Example F-463] | – | – | < 3 µM | > 3 µM
30 | Cc1ccc(NC(=O)C[C@@H](CCO)c2nnc(CCCC(C)C)n2C2CC2)c(C)c1 [Example F-313] | – | – | > 3 µM | > 3 µM
31 | Cc1ccc(NC(=O)CC(CC(=O)OC(C)(C)C)c2nnc([C@H]3C[C@@H](CC(C)C)C3)n2C2CC2)c(C)c1 (mixture of isomers) [Example F-498] | < 3 µM | < 3 µM | – | –
32 | Cc1ccc(NC(=O)C[C@H](CCC(=O)O)c2onc(-c3cc(CC(C)(C)C)on3)c2C2CC2)c(Cl)c1 [Example E-75] | – | – | < 3 µM | < 3 µM
33 | CCn1c(CCCC(C)(C)C)nnc1[C@@H]1[C@@H](C(=O)NCc2ccc(C)cc2OC)CCN1C(C)=O [Example F-370] | – | – | < 3 µM | < 3 µM
34 | Cc1ccc(CNC(=O)CCc2nnc(CCC(C)C)n2C2CC2)cc1 [Example F-61] | – | – | > 3 µM | > 3 µM
35 | Cc1ccc(NC(=O)CCc2nnc(CO)n2C2CC2)c(C)c1 [Example F-96] | – | – | > 3 µM | > 3 µM
36 | Cc1c(O)cccc1CNC(=O)CCc1nnc(CCC(C)C)n1C1CC1 [Example F-133] | – | – | > 3 µM | > 3 µM
37 | CC(=O)N1CC([C@H](CC(=O)Nc2ccc(C)cc2C)c2nnc([C@H]3C[C@@H](CC(C)C)C3)n2C2CC2)C1 [Example F-467] | – | – | > 3 µM | > 3 µM
38 | Cc1ccc(NC(=O)CCc2noc([C@H]3C[C@@H](CC(C)(C)C)C3)c2C2CC2)c(C)c1 [Example F-721] | < 3 µM | < 3 µM | – | –
39 | Cc1ccc(NC(=O)C[C@H](CCC(=O)O)c2noc(-c3cc(CCC(C)C)on3)c2C(F)(F)F)c(Cl)c1 [Example E-16] | – | – | < 3 µM | < 3 µM
40 | Cc1ccc(NC(=O)CCc2nnc(CCC3CCCCC3)n2CC(F)(F)F)c(C)c1 [Example F-142] | – | – | < 3 µM | < 3 µM
41 | CCn1c(CCCC(C)(C)C)nnc1[C@@H]1[C@@H](C(=O)Nc2ccc(C)cc2C)CCN1C(C)=O [Example F-369] | – | – | < 3 µM | < 3 µM
42 | CC(=O)N1C[C@H](C(=O)Nc2ccc(C)cc2C)[C@@H](c2nnc(CCCC(C)(C)C)n2CC(F)(F)F)C1 [Example F-392] | – | – | < 3 µM | < 3 µM
43 | CCn1c(CCC(=O)Nc2ccc(C)cc2C)nnc1CCC(C)C [Example F-51] | – | – | > 3 µM | > 3 µM
44 | CC(C)C[C@H]1C[C@@H](c2nnc([C@@H](CCO)CC(=O)NCc3ccc(Cl)cc3Cl)n2C2CC2)C1 [Example F-521] | < 3 µM | < 3 µM | – | –
45 | Cc1ccc(NC(=O)CCc2nnc(CCC3CCCCC3)n2C2CC2)c(C)c1 [Example F-95] | – | – | < 3 µM | < 3 µM
46 | Cc1c(NC(=O)CCc2nnc(CCC(C)C)n2C2CC2)ccc(Cl)c1Cl [Example F-165] | – | – | < 3 µM | > 3 µM
47 | CC(=O)N1C[C@H](C(=O)Nc2ccc(C)cc2C)[C@@H](c2nnc(CCOC(C)(C)C(F)(F)F)n2C2CC2)C1 (racemic) [Example F-325] | – | – | < 3 µM | < 3 µM
48 | CC(C)(C)Cc1cc(-c2onc([C@@H](CCC(=O)O)CC(=O)Nc3ccc(Cl)cc3F)c2C2CC2)no1 [Example E-56] | – | – | < 3 µM | < 3 µM
49 | Cc1c(NC(=O)CCc2nnc(CCC(C)C)n2C2CC2)cccc1C(F)(F)F [Example F-99] | – | – | < 3 µM | > 3 µM
50 | Cc1c(Br)cccc1NC(=O)CCc1nnc(CCC(C)C)n1C1CC1 [Example F-84] | – | – | < 3 µM | < 3 µM
51 | CC(=O)N[C@@H](CC(=O)Nc1ccc(C)cc1C)c1nnc(CCCC(C)(C)C)n1C1CC1 [Example F-344] | – | – | < 3 µM | < 3 µM
52 | Cc1ccc(NC(=O)C[C@H](CCCO)c2noc(-c3cn(CCC(C)(C)C)nc3C(F)(F)F)c2C2CC2)c(F)c1 [Example F-705] | > 3 µM | > 3 µM | – | –

Source: patent publication US20160137639A1, “TRIAZOLE-ISOXAZOLE COMPOUND AND MEDICAL USE THEREOF” (JAPAN TOBACCO INC., priority 2012, published 2016)
